Data: BindingDB's records for doi:10.1074/jbc.M109.089946 (Merck Research Laboratories, 2010)
pIC50: −log10 of the molar value.

Legend:
[1] = molecular target: 3-phosphoinositide-dependent protein kinase 1 (Homo sapiens) (UniProt O15530); assay: 384-Well TR-Fret assay using AKT-tide peptide substrate.
[2] = molecular target: T1, 3-phosphoinositide-dependent protein kinase 1 (Homo sapiens, UniProt O15530); assay: TR-Fret Assay
T1 sequence (O15530 whole entry): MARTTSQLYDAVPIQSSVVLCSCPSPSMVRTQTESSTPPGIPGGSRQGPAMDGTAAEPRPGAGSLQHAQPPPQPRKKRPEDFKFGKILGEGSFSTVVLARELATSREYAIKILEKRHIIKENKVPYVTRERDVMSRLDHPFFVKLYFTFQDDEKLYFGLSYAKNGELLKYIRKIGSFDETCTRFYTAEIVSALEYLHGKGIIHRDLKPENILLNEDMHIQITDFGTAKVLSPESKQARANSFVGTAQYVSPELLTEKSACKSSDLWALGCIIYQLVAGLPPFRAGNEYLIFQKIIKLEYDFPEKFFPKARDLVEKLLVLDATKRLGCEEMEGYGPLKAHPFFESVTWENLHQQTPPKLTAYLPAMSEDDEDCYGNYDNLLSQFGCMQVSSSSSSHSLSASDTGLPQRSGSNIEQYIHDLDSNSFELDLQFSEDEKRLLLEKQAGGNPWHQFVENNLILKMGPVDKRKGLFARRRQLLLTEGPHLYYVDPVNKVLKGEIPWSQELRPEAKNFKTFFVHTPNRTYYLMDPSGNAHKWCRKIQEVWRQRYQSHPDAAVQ
Text: 1536-Well TR-Fret uHTS assay PDK1-tide1 peptide substrate.

SMILES	pIC50 [1]	pIC50 [2]
CCCCCNC(=O)O[C@@H]1CC[C@@H]2[C@@H](C(=O)Nc3ccc(N(C)C)cc3)C[C@H]1N2CCC(C)C [Alkaloid 2]	< 4.52	4.74
Cc1[nH]nc2c1c(=O)n(CCCN)c1ccc(Br)cc21 [Compound # 1]	7.85	7.96
CC(C)(C)c1nc2c3ccc(F)cc3c3c(=O)[nH]ccc3c2[nH]1 [Jak Inhibitor 1]	7.55	7.70
